Assay [1] deals with T1, 17-beta-hydroxysteroid dehydrogenase type 1 (Homo sapiens, UniProt P14061).
T1 sequence (P14061 whole entry): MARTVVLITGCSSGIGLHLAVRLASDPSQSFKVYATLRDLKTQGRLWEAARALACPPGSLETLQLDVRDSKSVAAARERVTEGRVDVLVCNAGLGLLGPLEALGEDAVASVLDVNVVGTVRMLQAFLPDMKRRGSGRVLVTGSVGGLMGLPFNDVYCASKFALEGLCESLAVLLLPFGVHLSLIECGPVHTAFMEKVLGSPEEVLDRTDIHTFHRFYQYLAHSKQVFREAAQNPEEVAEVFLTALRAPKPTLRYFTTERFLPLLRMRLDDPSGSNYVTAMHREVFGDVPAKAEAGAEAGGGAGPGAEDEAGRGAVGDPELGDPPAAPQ
The experiment in a line: Enzymatic Assay (Inhibition of Type 1 17beta-HSD). As to conditions: pH 7.4; 37 °C. The procedure: The enzymatic reaction was performed in the reaction buffer containing substrate, [14C]-estrone, and the test inhibitors. After the reaction, radiolabeled steroids were extracted from the reaction mixture, and solvent was evaporated to dryness. Steroids were dissolved and separated on TLC plates. Radioactivity signals were detected and quantified using a PhosphoImager (Sunny Vale, CA). The percentage of transformation of [14C]-E1 into [14C]-E2 was calculated. The IC50 values were calculated using an unweighted iterative least-squares method for four-parameter logistic curve fitting (DE50 program, CHUL Research Center, Quebec).

Assay [2] has as its target T1, 17-beta-hydroxysteroid dehydrogenase type 1. The assay is described as follows: Enzyme Inhibition on the Conversion of E2 to E1 by 17beta-HSD1. The note with it: pH 7.5; 37 °C. An excerpt:
For steady-state kinetic study of hybrid inhibitors, a Fluorolog 3 instrument was used to monitor the fluorescent signal of NADPH formed during estradiol oxidation, through which the substrate conversion is monitored. The excitation wavelength was 340 nm, and the emission wavelength was 460 nm. […] Ki was further determined by a plot of Km vs. the inhibitor concentration.

As for `C[C@]12CC[C@@H]3c4ccc(O)cc4CC[C@H]3[C@@H]1CC(CCCCCCCC(=O)OCC1OC(n3cnc4c(N)ncnc43)C(O)C1O)[C@@H]2O` (stereo partly drawn) [[5-(6-amino-9H-purin-9-yl)-3,4-dihydroxyoxolan-2-yl]methyl 8-[(1S,10R,11S,14S,15S)-5,14-dihydroxy-15-methyltetracyclo[8.7.0.0^{2,7}.0^{11,15}]heptadeca-2,4,6-trien-13-yl]octanoate], inhibition in assay [1] was half-maximal at 93 nM (IC50). The same measure, in the same setting: next, `C[C@]12CC[C@@H]3c4ccc(O)cc4CC[C@H]3[C@@H]1CC(CCCCCCCCCC(=O)OCC1OC(n3cnc4c(N)ncnc43)C(O)C1O)[C@@H]2O` (stereo partly drawn) [[5-(6-amino-9H-purin-9-yl)-3,4-dihydroxyoxolan-2-yl]methyl 10-[(1S,10R,11S,14S,15S)-5,14-dihydroxy-15-methyltetracyclo[8.7.0.0^{2,7}.0^{11,15}]heptadeca-2,4,6-trien-13-yl]decanoate]: 140 nM. `CCCCCCCCC(=O)OCC1OC(n2cnc3c(N)ncnc32)C(O)C1O` (stereo not given) [[5-(6-amino-9H-purin-9-yl)-3,4-dihydroxyoxolan-2-yl]methyl nonanoate] yielded a Ki in assay [2] of 250000 nM.

In turn, `C[C@]12CC[C@@H]3c4ccc(O)cc4CC[C@H]3[C@@H]1CC(CCCCCCCCC(=O)OCC1OC(n3cnc4c(N)ncnc43)C(O)C1O)[C@@H]2O` (stereo not given in full) [EM1745] came in with a Ki in assay [2] of 3 nM. For the same molecule, inhibition in assay [1] was half-maximal at 52 nM (IC50).

As a reminder, the IC50 is the concentration needed to halve the response being measured. Lower therefore signals greater potency. The term Ki denotes the equilibrium dissociation constant of an inhibitor or competing ligand from its target.

These data come from BindingDB's records for doi:10.1096/fj.02-0026fje (Chul, 2002).
